This note sets out measurements from ChEMBL document CHEMBL1201862, “PubChem BioAssay data set” (2004).

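96-well plates; 48 h exposure; 5 concentrations. Endpoints by linear interpolation between flanking doses. Not reached: highest tested concentration assigned. At the GI50, growth is halved.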 Activity calls are given as the source filed them. Rule as the data show it: active = GI50 up to about 1.1 µM and inactive = higher.

Some test systems named below: SW-620; ACHN; HCC 2998; NCI-H460; SF-295; OVCAR-5; MDA-MB-231; K562; SF-539; M14; NCI-H226; HCT-15; OVCAR-3; LOX IMVI; RPMI-8226; MDA-MB-435; T47D; HCT-116; COLO 205; MOLT-4.
Holding throughout (assay): DTP human tumour cell line panel, 48 h

For the compound `N#Cc1nc(CCCCCN2C(=O)c3ccccc3C2=O)oc1N`, the GI50 (in general, the concentration at which growth is held to half of that of the control) in the assay on SW-620 is > 100 µM (inactive); in the assay on ACHN it was > 100 µM (inactive); in the assay on HCC 2998 it was 16.3 µM (inactive); with NCI-H460, > 100 µM (inactive); in the assay with SF-295, > 100 µM (inactive); in the assay on OVCAR-5 it was > 100 µM (inactive). The GI50 is > 100 µM (inactive) in the assay on MDA-MB-231; 17 µM (inactive) in the assay on K562; > 100 µM (inactive) in the assay on SF-539; > 100 µM (inactive) in the assay with M14; > 100 µM (inactive) in the assay on NCI-H226; greater than 100 µM in the assay with HCT-15. Besides, the GI50 is > 100 µM (inactive) with OVCAR-3; > 100 µM (inactive) in the assay with LOX IMVI; 21.1 µM (inactive) in the assay with RPMI-8226; > 100 µM (inactive) in the assay on MDA-MB-435; > 100 µM (inactive) with T47D; > 100 µM (inactive) in the assay on HCT-116. The GI50 in the assay on COLO 205 was > 100 µM (inactive); in the assay with MOLT-4, 75.7 µM (inactive).
